Where “and” joins values, the source holds several entries; their conditions need not be identical. Identical values can stand only once. Counter-ions that a name gives are not always drawn.
What was measured:
[1] = test system: β2AR–Gs peptide FRET sensor; assay: ∆FRET assay, β2AR–Gs peptide SPASM FRET sensor; conditions: isoproterenol 100 µM
[2] = target: T1, PTH1R (Homo sapiens, UniProt Q03431); assay: InsP1 accumulation, PTH1R; type: cell-based; conditions: PTH1R Wild-Type
T1 construct: expressed in transfected cells; host or cells: HEK 293T
T1 sequence (Q03431 27-593): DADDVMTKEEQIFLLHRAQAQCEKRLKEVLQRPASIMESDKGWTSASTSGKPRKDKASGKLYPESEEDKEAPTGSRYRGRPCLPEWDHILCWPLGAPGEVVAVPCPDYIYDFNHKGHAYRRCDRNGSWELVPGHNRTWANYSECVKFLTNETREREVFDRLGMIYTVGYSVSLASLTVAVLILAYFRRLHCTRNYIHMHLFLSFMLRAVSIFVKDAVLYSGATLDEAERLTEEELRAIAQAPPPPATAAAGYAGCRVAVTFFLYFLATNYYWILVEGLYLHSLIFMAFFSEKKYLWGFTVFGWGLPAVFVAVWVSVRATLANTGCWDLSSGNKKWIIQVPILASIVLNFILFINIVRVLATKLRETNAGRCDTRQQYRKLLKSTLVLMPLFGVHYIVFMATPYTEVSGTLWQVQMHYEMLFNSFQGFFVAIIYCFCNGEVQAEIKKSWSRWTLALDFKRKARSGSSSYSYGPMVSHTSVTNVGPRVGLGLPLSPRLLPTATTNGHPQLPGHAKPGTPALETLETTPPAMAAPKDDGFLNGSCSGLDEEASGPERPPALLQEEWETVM
Procedure: (§1) One millilitre of medium was removed from each well containing transfected cells. The remaining volume was used to gently shear and resuspend the cells by pipetting. The cell mixture was centrifuged (3 min, 300g) and media was removed using a vacuum manifold. […] The cells were washed once by repeating this procedure.
(§2) For all other second messenger assays, expression level and cell density of each condition was estimated through fluorescence. Fluorescence spectra for mCerulean (Horiba Fluoromax 4, excitation 430 nm, emission scan 450–600 nm, bandpass 4 nm) and mCitrine (Horiba Fluoromax 4, excitation 490 nm, emission scan 500–600 nm, bandpass 4 nm) were acquired for each condition. Cells were resuspended at 350,000 ± 30,000 fluorescence counts at a wavelength representing optical density of the sample (excitation 430 nm/emission 450 nm), corresponding with 2 × 10^6 ± 5 × 10^5 cells per m^l. This was confirmed by counting the cells on a haemocytometer (Countess II).
(§3) Resuspended cells were added 1:1 with a 2× concentration of ligand (70 µl final) into an opaque 96-well U-bottom plate (Greiner Bio-One). […] Plates were incubated at 37 °C for 2 h to stimulate InsP1 production. Reactions were quenched and processed for the InsP1 HTRF Assay (CisBio), following a protocol modified to achieve a higher signal to noise ratio. Fifteen microlitres of D2-conjugated InsP1 resuspended in lysis buffer (Cisbio) and 15 µl of terbium cryptate conjugated anti-InsP1 antibody resuspended in lysis buffer (Cisbio) were added to the stimulated cell mixture. Cell lysate was equilibrated for 1 h at ambient temperature with shaking (500 rpm). Reactions were transferred (4 × 20 µl) to a 384-well plate for technical replicates. […] FRET ratio for each reading was calculated as the ratio of acceptor emission to donor emission. InsP1 signal for a drug and transfection combination was calculated as the average FRET ratio of a given transfection condition without drug treatment subtracted from the average FRET ratio of a of a given transfection condition with drug treatment.

[3] = test system: PTH1R; assay: InsP1 accumulation, PTH1R; type: cell-based, human; conditions: PTH1R B2AR ICL3
Procedure: as §1, §2, §3

[4] = test system: β2AR; assay: cAMP accumulation (cAMP-Glo), β2AR; type: cell-based, human; conditions: for cAMP response (Average): β2AR L258Azi
[5] = [Isoproterenol] log(M) -6.30103
[6] = [Isoproterenol] log(M) -7.30103
[7] = [Isoproterenol] log(M) -8.30103

Structure (SMILES): CC(C)NCC(O)c1ccc(O)c(O)c1 (stereo not drawn) [Isoproterenol, isoproterenol (+)-bitartrate salt]
- ∆FRET (Isoproterenol - Buffer) ([1]; HVQ-AAA β2AR–Gs peptide sensor, single experiments N 1-5): 0.012 and 0.013 and 0.020
- ∆FRET (Isoproterenol - Buffer) ([1]; QDG-AAA β2AR–Gs peptide sensor, single experiments N 1-5): 0.021 and 0.017 and 0.027 and 0.030
- ∆FRET (Isoproterenol - Buffer) ([1]; Wild-Type β2AR–Gs peptide sensor, + 10 µM Gq-peptide, single samples): 0.034 and 0.026 and 0.018
- ∆FRET (Isoproterenol - Buffer) ([1]; Wild-Type β2AR–Gs peptide sensor, single experiments N 1-5): 0.014 and 0.016 and 0.017 and 0.019
- ∆FRET (Isoproterenol - Buffer) ([1]; Wild-Type β2AR–Gs peptide sensor, without Gq-peptide, single samples): 0.013 and 0.016 and 0.010 and 0.017 and 0.012
- ∆FRET (Isoproterenol - Buffer) ([1]; ∆ICL3 β2AR–Gs peptide sensor, without Gq-peptide, single samples): 0.022 and 0.020 and 0.025 and 0.024
- IP1 (AU), Average ([2]; [Isoproterenol] log(M) -5): 0.44 AU
- IP1 (AU), Average ([2]; [Isoproterenol] log(M) -6): 0.45 AU
- IP1 (AU), Average [2, 5]: 0.41 AU
- IP1 (AU), Average ([2]; [Isoproterenol] log(M) -7): 0.38 AU
- IP1 (AU), Average [2, 6]: 0.22 AU
- IP1 (AU), Average ([2]; [Isoproterenol] log(M) -8): 0.0235 AU
- IP1 (AU), Average [2, 7]: 0.04 AU
- IP1 (AU), Average ([2]; [Isoproterenol] log(M) -9): -0.0234 AU
- IP1 (AU), Average ([2]; [Isoproterenol] log(M) -10): -0.0216 AU
- IP1 (AU), Average ([2]; [Isoproterenol] log(M) -11): -0.00815 AU
- IP1 (AU), Average ([3]; [Isoproterenol] log(M) -5): 0.32 AU
- IP1 (AU), Average ([3]; [Isoproterenol] log(M) -6): 0.35 AU
- IP1 (AU), Average [3, 5]: 0.29 AU
- IP1 (AU), Average ([3]; [Isoproterenol] log(M) -7): 0.28 AU
- IP1 (AU), Average [3, 6]: 0.15 AU
- IP1 (AU), Average ([3]; [Isoproterenol] log(M) -8): -0.00248 AU
- IP1 (AU), Average [3, 7]: -0.00156 AU
- IP1 (AU), Average ([3]; [Isoproterenol] log(M) -9.30103): 0.05 AU
- IP1 (AU), Average ([3]; [Isoproterenol] log(M) -10): -0.0155 AU
- IP1 (AU), Average ([3]; [Isoproterenol] log(M) -11): 0.00619 AU
- Emax (Average) ([4]; β2AR L258 (L258Azi), fit of the isoproterenol concentration-response of Extended Data Figure 3B): 1.23E+05
- cAMP response (Average) ([4]; Log (Isoproterenol (M)) -4): 1.30E+05
- cAMP response (Average) ([4]; Log (Isoproterenol (M)) -5): 1.30E+05
- cAMP response (Average) ([4]; Log (Isoproterenol (M)) -6): 1.28E+05
- cAMP response (Average) ([4]; Log (Isoproterenol (M)) -7): 1.04E+05
- cAMP response (Average) ([4]; Log (Isoproterenol (M)) -7.52288): 1.08E+05
- cAMP response (Average) ([4]; Log (Isoproterenol (M)) -8): 1.10E+05
- cAMP response (Average) ([4]; Log (Isoproterenol (M)) -8.52288): 6.79E+04
- cAMP response (Average) ([4]; Log (Isoproterenol (M)) -9): 4.10E+04
- cAMP response (Average) ([4]; Log (Isoproterenol (M)) -9.52288): 2.28E+04
- cAMP response (Average) ([4]; Log (Isoproterenol (M)) -10): -8.91E+03
- cAMP response (Average) ([4]; Log (Isoproterenol (M)) -10.5229): -2.86E+04
- cAMP response (Average) ([4]; Log (Isoproterenol (M)) -11): -9.58E+03
- cAMP response (Average) ([4]; Log (Isoproterenol (M)) -12): -4.68E+03
- cAMP response (Average) ([4]; Log (Isoproterenol (M)) -13): 2.29E+03

— paper PMC10033409, “Autoregulation of GPCR signalling through the third intracellular loop” (Nature, 2023)
